Measured values as given in patent US8268854B2, “Aza-beta-carbolines and methods of using same” (The UWM Research Foundation, Inc., priority 2008, dated 2012).
pKi: −log10 of the molar value. Where a name gives a salt, the structure may show the parent alone. Read-outs that look alike come from different tables or passages of the source.

Key:
[1] = target: T1, GABAA receptor α2 subtype with β2 and γ2 subunits (Homo sapiens, UniProt P18507+P47869); experiment: Competition binding assay with [3H]flunitrazepam
T1 construct: expressed in transfected cells; host or cells: HEKT cell line, transient transfection with Fugene 6
From the text: (§1) Bound radioactivity is quantified by liquid scintillation counting.

[2] = target: T2, GABAA receptor α1 subtype with β2 and γ2 subunits (Homo sapiens, UniProt P14867+P18507); experiment: Competition binding assay with [3H]flunitrazepam
T2 construct: expressed in transfected cells; host or cells: HEKT cell line, transient transfection with Fugene 6
From the text: as §1

[3] = target: T3, GABAA receptor α3 subtype with β2 and γ2 subunits (Homo sapiens, UniProt P18507+P34903); experiment: Competition binding assay with [3H]flunitrazepam
T3 construct: expressed in transfected cells; host or cells: HEKT cell line, transient transfection with Fugene 6
From the text: as §1

[4] = target: T4, GABAA receptor α5 subtype with β2 and γ2 subunits (Homo sapiens, UniProt P18507+P31644); experiment: Competition binding assay with [3H]flunitrazepam
T4 construct: expressed in transfected cells; host or cells: HEKT cell line, transient transfection with Fugene 6
From the text: as §1

Dopamine receptor D4 = target: T5, Dopamine receptor D4 (Homo sapiens, UniProt P21917); experiment: PDSP primary radioligand binding assay; conditions: compound 10 μM, n=4, read-out: mean percentage inhibition, Dopamine receptor D4
T5 construct: expressed in transfected cells
T5 sequence (P21917 1-419): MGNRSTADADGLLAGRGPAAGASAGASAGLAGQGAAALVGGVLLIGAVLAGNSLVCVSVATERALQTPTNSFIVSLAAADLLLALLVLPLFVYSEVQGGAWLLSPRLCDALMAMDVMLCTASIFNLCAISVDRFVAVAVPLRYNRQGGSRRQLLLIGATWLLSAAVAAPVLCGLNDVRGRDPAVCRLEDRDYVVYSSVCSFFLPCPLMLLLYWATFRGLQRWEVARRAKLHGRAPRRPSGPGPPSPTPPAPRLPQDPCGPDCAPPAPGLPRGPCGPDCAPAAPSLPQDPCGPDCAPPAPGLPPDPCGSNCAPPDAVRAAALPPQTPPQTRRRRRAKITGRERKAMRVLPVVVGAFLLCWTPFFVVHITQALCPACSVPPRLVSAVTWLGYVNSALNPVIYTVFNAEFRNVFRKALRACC
Protocol: (§2) Primary and secondary radioligand binding assays are performed. In general, the primary assay is run at very high ligand (compound) concentration as a broad screen to determine whether a compound binds to a particular receptor. If greater than 50% inhibition at 10 μM (high concentration of compound) at a particular receptor is determined, a secondary assay is performed on that receptor. Data from the secondary assay is the binding affinity (Ki value).
(§3) A solution of the compound to be tested is prepared as a 1 mg/ml stock in Standard Binding Buffer or dimethyl sulfoxide (DMSO) according to its solubility. A similar stock of a reference compound (positive control) is also prepared.
(§4) Radioligand (radioligands are presented in Table 39) is diluted to five times the assay concentration (assay concentrations are presented in Table 39) in Standard Binding Buffer. Typically, the assay concentration of radioligand is a value between one half the KD and the KD of a particular radioligand at its target. Aliquots (50 μL) of radioligand are dispensed into the wells of a 96-well plate (see FIG. 11) containing 100 μL of Standard Binding Buffer (Table 40). Then, duplicate 50 μL aliquots of the test and reference compound dilutions are added (see FIG. 11). According to FIG. 11, increasing concentrations (from left to right) of reference or test compound (diluted in buffer) are added (50 μL aliquots, in duplicate) from 5× stock solutions to wells containing 50 μL of 5× radioligand (fixed concentration, prepared in buffer) and 100 μL of buffer. Finally, 50 μL of receptor-containing membrane homogenate (5× suspension in buffer) are added to achieve a final assay volume of 250 μL. Final concentrations of reference or test compound are listed above the columns in FIG. 11.
(§5) Finally, crude membrane fractions of cells expressing recombinant target (prepared from 10 cm plates by harvesting phosphate buffered saline (PBS)-rinsed monolayers, resuspending and lysing in chilled, hypotonic 50 mM Tris-HCl, pH 7.4, centrifuging at 20,000×g, decanting the supernatant and storing at −80° C.; typically, one 10 cm plate provides sufficient material for 24 wells) are resuspended in 3 mL of chilled Standard Binding Buffer and homogenized by several passages through a 26 gauge needle, and then 50 μL are dispensed into each well.
(§6) The 250 μL reactions are incubated at room temperature and shielded from light (to prevent photolysis of light-sensitive ligands) for 1.5 hours, then harvested by rapid filtration onto Whatman GF/B glass fiber filters pre-soaked with 0.3% polyethyleneimine using a 96-well Brandel harvester. Four rapid 500 μL washes are performed with chilled Standard Binding Buffer to reduce non-specific binding. Filters are placed in 6 mL scintillation tubes and allowed to dry overnight. The next day, 4 mL of EcoScint scintillation cocktail (National Diagnostics) are added to each tube. The tubes are capped, labeled, and counted by liquid scintillation counting. For higher throughput assays, bound radioactivity is harvested onto 0.3% polyethyleneimine-treated, 96-well filter mats using a 96-well Filtermate harvester. The filter mats are dried, then scintillant is melted onto the filters, and the radioactivity retained on the filters is counted in a Microbeta scintillation counter.
(§7) Raw data (dpm) representing total radioligand binding (i.e., specific+non-specific binding) are plotted as a function of the logarithm of the molar concentration of the competitor (i.e., test or reference compound). […]

Histamine receptor H2 = target: T6, Histamine receptor H2 (Homo sapiens, UniProt P25021); experiment: PDSP primary radioligand binding assay; conditions: compound 10 μM; for mean percentage inhibition, Histamine receptor H2: n=4, hydrochloride, 10 µM
T6 construct: expressed in transfected cells
Protocol: as §2, §3, §4, §5, §6, §7

Dopamine D5 = target: T7, Dopamine D5 (Homo sapiens, UniProt P21918); experiment: PDSP primary radioligand binding assay; conditions: compound 10 μM
T7 construct: expressed in transfected cells
Protocol: as §2, §3, §4, §5, §6, §7

Dopamine receptor D3 = target: T8, Dopamine receptor D3 (Rattus norvegicus, UniProt P19020); experiment: PDSP primary radioligand binding assay; conditions: compound 10 μM; for inhibition at 10 µM: n=4, read-out: mean percentage inhibition, Dopamine receptor D3
T8 construct: expressed in transfected cells
Protocol: as §2, §3, §4, §5, §6, §7

| pKi ([1]; [3H]flunitrazepam, α2β2γ2, HEKT cells, read-out: GABAA RECEPTOR BINDING α2) | pKi ([2]; [3H]flunitrazepam, α1β2γ2, HEKT cells, read-out: GABAA RECEPTOR BINDING α1) | pKi ([3]; [3H]flunitrazepam, α3β2γ2, HEKT cells, read-out: GABAA RECEPTOR BINDING α3) | pKi ([4]; [3H]flunitrazepam, α5β2γ2, HEKT cells, read-out: GABAA RECEPTOR BINDING α5) | inhibition at 10 µM (Histamine receptor H2; n=4, read-out: mean percentage inhibition, Histamine receptor H2) [%] | mean percentage inhibition, Dopamine receptor D3 (Dopamine receptor D3; n=4, hydrochloride, 10 µM) [%] | SMILES | pKi [1] | pKi [2] | pKi [3] | pKi [4] | inhibition at 10 µM (Dopamine receptor D4) [%] | mean percentage inhibition, Histamine receptor H2 (Histamine receptor H2) [%] | binding at 10 μM, Dopamine D5 (Dopamine D5) [%] | inhibition at 10 µM (Dopamine receptor D3) [%] |
| --- | --- | --- | --- | --- | --- | --- | --- | --- | --- | --- | --- | --- | --- | --- |
| – | – | – | – | – | – | CCCOc1cc2c(cn1)[nH]c1cnccc12 [Compound 4, 3-Propoxy pyridino[4′,3′-4,5]pyrrolo[2,3-c]pyridine hydrochloride] | 8.20 | 8.24 | 8.83 | 7.37 | -18.1 | 26.8 | < 50 | 24.1 |
| 9.48 | 8.01 | 8.39 | 7.91 | < 50 | 31.8 | CCCOc1cc2c(cn1)[nH]c1ccncc12 [Compound 2, 8-Propoxypyridino[4′,3′-5,4]pyrrolo[3,2-c]pyridine hydrochloride] | – | – | – | – | > 50 | 31.4 | < 50 | < 50 |
